Experiment [1] has as its system PC12 cells. Briefly: Etoposide-induced apoptosis in PC12 cells, cell viability. The class given is cell-based. To be noted: for viability at 0.1 µM / viability at 0.3 µM / viability at 1 µM / viability at 3 µM / viability at 10 µM / viability at 30 µM: Rattus norvegicus; for viability at 0.1 µM: 0.1 μM compound, vehicle 52.1 ± 7.32; for viability at 0.3 µM: 0.3 μM compound; for protective activity in WT PC12 etoposide assay: WT PC12 cells.

In experiment [2] the test system is PC12 cells. Briefly: Serum starvation-induced apoptosis in PC12 cells, cell viability. Conditions: Rattus norvegicus. Format: cell-based.
The test system of experiment [3] is CLN3 siRNA knock down PC12 cells. Briefly: Protective effect in siRNA CLN3 knock down PC12 cells. The class given is cell-based. Conditions: FIG. 3A. An excerpt:
(§1) FIGS. 3A and 3B show the neuroprotective effect of selected compounds in phenotypic cell lines. In FIG. 3A, the protective effect is shown in siRNA CLN3 knock down PC12 cells. In FIG. 3B the protective effect is shown in wild-type (WT) and CLN3 knock down mouse fibroblasts. Values are represented as mean±SD. *P<0.05, **p<0.01, ***p<0.001 compared to vehicle control, unpaired student t test.
(§2) Protective Effect in Phenotypic Cell Lines. […] The inventors screened a number of compounds in both neuron-like CLN3 siRNA knock down PC12 cells (FIG. 3A) and CLN3 knockdown mouse fibroblasts (FIG. 3B) as phenotypic models of JNCL. […] FIGS. 3A and 3B show the neuroprotective effect of selected compounds in phenotypic cell lines. In FIG. 3A, the protective effect is shown in siRNA CLN3 knock down PC12 cells. In FIG. 3B the protective effect is shown in wild-type (WT) and CLN3 knock down mouse fibroblasts. Values are represented as mean±SD. *P<0.05, **p<0.01, ***p<0.001 compared to vehicle control, unpaired student t test. […] Selected derivatives show greater protective effect than flupirtine in patient lympoblast cells in CLN1, CLN2, CLN3, CLN6 and CLN8 disease (FIGS. 4A to 4E). FIGS. 4A to 4E show the percentage of patient lymphoblast cells (%), using Trypan Blue dye with Flupirtine (20 μM, vehicle %1 EtOH), drug 3 (20 μM, vehicle %1 EtOH), drug 5 (50 μM, vehicle %4 DMSO) or drug 6 (20 μM, vehicle %4 DMSO) at 24 h. CLN1 (FIG. 4A), CLN2 (FIG. 4B), CLN3 (FIG. 4C), CLN6 (FIG. 4D), and CLN8 (FIG. 4E).

In experiment [4] the test system is CLN3 knockdown mouse fibroblasts. Briefly: Protective effect in CLN3 knock down mouse fibroblasts. Format: cell-based. To be noted: FIG. 3B.
Excerpt: as §1, §2

Experiment [5] concerns PC12 cells. Briefly: ROS in PC12 cells, CellROX green / DAPI staining after H2O2. The class given is cell-based. To be noted: 400 μM H2O2 for 4 hours, FIG. 5A. The procedure:
PC12 cells stained with CellROX and DAPI-blue nuclear stain. Greater intensity of green fluorescence indicates greater levels of ROS. Visualized through a microscope (40× magnification, bar=100 μM).
While flupirtine and retigabine are known antioxidants the inventors have shown (FIGS. 5A and 5B) that neuroprotective derivatives operate by a different mechanism of action. […] PC12 cells stained with CellROX and DAPI-blue nuclear stain. Greater intensity of green fluorescence indicates greater levels of ROS. Visualized through a microscope (40× magnification, bar=100 μM).

The next experiment has as its system primary neurons. Conditions: cited from earlier work.
In a further experiment the test system is IMR-90-derived neurons. The class given is cell-based, human. The source says:
The disclosed technology encompasses multiple derivatives of both flupirtine and retigabine. […] The inventors provide further insight into the derivatives from both original molecules. […] By way of explanation, and in no way a limitation of the present invention, the inventors have shown that the derivatives are active in two ways: they (1) upregulate expression of the anti-apoptotic protein Bcl-2 and ceramide pathway synthesis enzymes, and (2) activate autophagy.

Setting [6] is: PC-12, etoposide-induced apoptosis, PC12 cells.
[7] abbreviates: PC-12, 1 μM compound, etoposide-induced apoptosis, PC12 cells, read-out: % Viability 1 μM.
Setting [8] is: PC-12, 3 μM compound, etoposide-induced apoptosis, PC12 cells, read-out: % Viability 3 μM.
Setting [9] is: PC-12, 10 μM compound, etoposide-induced apoptosis, PC12 cells, read-out: % Viability 10 μM.
The mark [10] stands for this setting: PC-12, 30 μM compound, etoposide-induced apoptosis, PC12 cells, read-out: % Viability 30 μM.
Setting [11] is: PC-12, 1 μM compound, serum starvation-induced apoptosis, PC12 cells, vehicle 55.04 ± 8.99, read-out: % Viability 1 μM.
[12] abbreviates: PC-12, 3 μM compound, serum starvation-induced apoptosis, PC12 cells, read-out: % Viability 3 μM.
The mark [13] stands for this setting: PC-12, 10 μM compound, serum starvation-induced apoptosis, PC12 cells, read-out: % Viability 10 μM.
Setting [14] is: PC-12, 30 μM compound, serum starvation-induced apoptosis, PC12 cells, read-out: % Viability 30 μM.
[15] abbreviates: PC-12, read-out: % Viability 1 μM.
[16] abbreviates: PC-12, read-out: % Viability 3 μM.
Setting [17] is: PC-12, read-out: % Viability 10 μM.
[18] abbreviates: PC-12, read-out: % Viability 30 μM.

On to `CCOC(=O)Nc1ccc(NCc2ccc(F)cc2)nc1N` [NK-1-4, Ethyl (2-amino-6-((4-fluorobenzyl)amino)pyridin-3-yl)carbamate, reference compound], for which the viability at 0.1 µM in the experiment on PC12 cells [1] (setting [6]) was 67 ± 5.88%. In the experiment on PC12 cells [1] (setting [6]), the viability at 0.3 µM worked out at 64.4 ± 9.35%. Moreover, the viability at 1 µM with PC12 cells [1] (setting [7]) is 73.2 ± 13.9%; in the experiment on PC12 cells [2] (setting [11]), 85.4 ± 14%. Moreover, the values for the viability at 3 µM in the experiment on PC12 cells [1] (setting [8]) and in the experiment on PC12 cells [2] (setting [12]) were 78.1 ± 12.9% and 82 ± 14.5%, respectively. Further, the viability at 10 µM worked out at 76.9 ± 17.4% with PC12 cells [1] (setting [9]) and 81.5 ± 13% in the experiment with PC12 cells [2] (setting [13]). The results for the viability at 30 µM with PC12 cells [1] (setting [10]) and in the experiment with PC12 cells [2] (setting [14]) were 71.3 ± 18% and 89.9 ± 17.1%, respectively. Besides, the “protective activity” value in experiment [3] and in experiment [4] was “protective activity” throughout. In the experiment with PC12 cells [5], the “amelioration of reactive oxygen species (ROS)” value (“amelioration” below) was “do ameliorate ROS”. Also, the “concentration showing protective activity against Abeta 25-35 apoptotic cell death” value in the experiment on primary neurons was 1 µg/mL.
Take `CCOC(=O)Nc1ccc(NCc2ccc(Cl)cc2)nc1N` [NK-4-3, Ethyl (2-amino-6-((4-chlorobenzyl)amino)pyridin-3-yl)carbamate]: the viability at 1 µM with PC12 cells [1] (setting [7]) is 65.7 ± 16.2%; in the experiment on PC12 cells [2] (setting [11]), 78 ± 9.61%. The viability at 3 µM is 64.3 ± 4.28% with PC12 cells [1] (setting [8]) and 79.3 ± 5.5% in the experiment on PC12 cells [2] (setting [12]). In addition, the viability at 10 µM in the experiment with PC12 cells [1] (setting [9]) came out at 52.6 ± 10.3%; in the experiment on PC12 cells [2] (setting [13]), 86.5 ± 11.5%. Further, the results for the viability at 30 µM with PC12 cells [1] (setting [10]) and with PC12 cells [2] (setting [14]) were 41.5 ± 6.14% and 86.6 ± 5.32%, respectively. In the experiment on PC12 cells [1], the “protective activity in WT PC12 etoposide assay” value is “less active than compounds NK-10-1 and NK-12-1”. Besides, the “activity in iPSC/IMR-90-derived neurons” value in the experiment with IMR-90-derived neurons (15 ug/mL etoposide for 36 hours, FIG. 2) is “less active”.
For the compound `Nc1nc(NCc2ccc(F)cc2)ccc1NC(=O)OCc1ccccc1` [NK-10-1, Benzyl 6-(4-fluorobenzylamino)-2-aminopyridin-3-ylcarbamate], the viability at 1 µM stood at 60.1 ± 7.91% with PC12 cells [1] (setting [7]) and 93.4 ± 12.4% with PC12 cells [2] (setting [11]). The viability at 3 µM was 82 ± 4.43% with PC12 cells [1] (setting [8]) and 90.4 ± 11.2% with PC12 cells [2] (setting [12]). Also, the viability at 10 µM with PC12 cells [1] (setting [9]) is 66.2 ± 6.26%; in the experiment on PC12 cells [2] (setting [13]) it was 92.7 ± 12.8%. Further, the viability at 30 µM turned out to be 57.4 ± 2.24% in the experiment with PC12 cells [1] (setting [10]) and 96.1 ± 15.3% in the experiment on PC12 cells [2] (setting [14]). Also, in the experiment on PC12 cells [1], the “protective activity in WT PC12 etoposide assay” value is “greater neuroprotective activity”. In addition, the “protective activity” value in experiment [3] and in experiment [4] was “greater activity than flupirtine” each time. Further, the “amelioration” value in the experiment with PC12 cells [5] was “no amelioration of reactive oxygen species (ROS)”.
With `C=CCOC(=O)Nc1ccc(NCc2ccc(F)cc2)nc1N` [NK-12-1, Allyl 6-(4-fluorobenzylamino)-2-aminopyridin-3-ylcarbamate], the viability at 1 µM in the experiment on PC12 cells [1] (setting [7]) was 65.5 ± 8.19%; in the experiment on PC12 cells [2] (setting [11]) it was 108 ± 10.3%. The results for the viability at 3 µM in the experiment on PC12 cells [1] (setting [8]) and in the experiment with PC12 cells [2] (setting [12]) were 86.8 ± 9.05% and 88.6 ± 8.26%, respectively. Moreover, the viability at 10 µM in the experiment with PC12 cells [1] (setting [9]) came out at 67.5 ± 22.6%; in the experiment with PC12 cells [2] (setting [13]) it was 82.2 ± 11.8%. Also, the viability at 30 µM with PC12 cells [1] (setting [10]) amounted to 45.2 ± 8.92%; in the experiment on PC12 cells [2] (setting [14]) it was 92.6 ± 12.3%. The “protective activity in WT PC12 etoposide assay” value in the experiment on PC12 cells [1] is “greater neuroprotective activity”. Besides, the “protective activity” value in experiment [3] and in experiment [4] was “greater activity than flupirtine” each time. Besides, the “amelioration” value in the experiment on PC12 cells [5] was “no amelioration of reactive oxygen species (ROS)”.
Regarding `CCOC(=O)Nc1ccc(NCc2ccc(F)cc2)cc1N` [NK-22-13, Ethyl (2-amino-4-((4-fluorobenzyl)amino)phenyl)carbamate, reference compound], the viability at 1 µM in the experiment on PC12 cells [1] (setting [15]) is 58.3 ± 2.86%; with PC12 cells [2] (setting [15]), 75.9 ± 15%. In addition, the viability at 3 µM with PC12 cells [1] (setting [16]) worked out at 73.9 ± 13.9%; with PC12 cells [2] (setting [16]), 77.9 ± 22.6%. Besides, the figures for the viability at 10 µM with PC12 cells [1] (setting [17]) and in the experiment with PC12 cells [2] (setting [17]) were 66.3 ± 17.6% and 85.8 ± 17.9%, respectively. Further, the values for the viability at 30 µM in the experiment on PC12 cells [1] (setting [18]) and in the experiment with PC12 cells [2] (setting [18]) were 52.1 ± 7.62% and 76.2 ± 25%, respectively. In addition, the “amelioration” value with PC12 cells [5] is listed as “do ameliorate ROS”.
With `CCOC(=O)Nc1ccc(NCc2ccc(C(F)(F)F)cc2)nc1N` [NK-40-3, Ethyl (2-amino-6-((4-(trifluoromethyl)benzyl)amino)pyridin-3-yl)carbamate], the “concentration providing protection from etoposide-induced cell death” value in the experiment with PC12 cells [1] (PC12 cells) was determined as 0.1 µM. Further, in the experiment on PC12 cells [1] (setting [6]), the viability at 0.1 µM is 85.8 ± 11.8% and the viability at 0.3 µM turned out to be 109 ± 17.3%. The viability at 1 µM in the experiment with PC12 cells [1] (setting [7]) stood at 82.7 ± 8.82%. Further, in the experiment on PC12 cells [1] (setting [8]), the viability at 3 µM is 71.5 ± 4.99%. In addition, the viability at 10 µM in the experiment on PC12 cells [1] (setting [9]) was found to be 97.3 ± 22.8%. The viability at 30 µM in the experiment with PC12 cells [1] (setting [10]) was 106 ± 15.8%. The “concentration with neuroprotective activity (as low as)” value in the experiment with IMR-90-derived neurons (human IMR-90-derived neurons) was found to be 0.1 µM.

(Values after patent US11369593B2 (Texas Tech University System, priority 2017, dated 2022).)
